Literature values as cited in article PMC5520971 (Organic & biomolecular chemistry, 2017).

Tests used:
[1] = tested on: hepatocellular carcinoma cells; settings: ref [18]
[2] = tested on: hepatocellular carcinoma cells; settings: ref [18]; remark: listed apart in the source

Compound: CC1=C(/C=C/C(C)=C/C=C/C(C)=C/C(=O)O)C(C)(C)CCC1 [all-trans retinoic acid]
- growth of hepatocellular carcinoma cells in vitro [1]: selectively inhibited the growth
- growth of hepatocellular carcinoma cells in a mouse xenograft model [2]: selectively inhibited the growth
